Measurements published in patent US20210069269A1, “METHOD FOR ALLEVIATING TOBACCO OR NICOTINE WITHDRAWAL SYMPTOMS” (DANSTAR FERMENT AG, priority 2018, published 2021).

Test system: C. elegans wild type strain N2
Assay: C. elegans behavioral toxicity (thrashing/swimming) assay after 24 hours exposure to nicotine or tobacco extract with or without probiotic bacteria
Conditions: control worms with no bacteria, FIG. 1
Method: Experiments were carried out with the wild type strain N2 of C. elegans. Worms were synchronized by isolating eggs from gravid adults, collecting the eggs in M9 buffer, hatching the eggs overnight in NGM plates and sterilely isolating L1-stage worms with M9 buffer. The L1-stage worms were transferred to NGM (Nematode Growth Medium) plates inoculated with Escherichia coli strain OP50 and incubated for four days at 15° C. to reach adulthood.
Similarly, a natural tobacco extract (ABT #6079, Advanced Biotech) was diluted in M9 buffer to a final concentration of 6.2 mM.
Adult worms were washed in M9 buffer and 250 μl of worm suspension was transferred to 24-well culture plates with or without nicotine (250 μl if present) or tobacco extract (250 μl if present) and with or without probiotic suspension (500 μl if present). The probiotic suspension was added first to the wells followed by the nicotine or the tobacco extract. At least 40 worms were present per well. The plates were incubated at 20° C. for 24 hours. After incubation period, worm suspension in each well was washed three times in M9 buffer (centrifugation of four minutes at 1000 rpm). The worms were transferred in new 24-well culture plates containing 1 ml of agar 1% in each well. The worms were allowed to equilibrate for 45 minutes, and then the thrashing (swimming) was recorded using a Leica EC3 camera. […]

For `CN1CCCC1c1cccnc1.O.O.O=C(O)C(O)C(O)C(=O)O.O=C(O)C(O)C(O)C(=O)O` (stereo not shown) [nicotine, Nicotine ditartrate dihydrate], the “behavioral toxicity of the challenge agent to worms without bacteria” value was “induced a reversible paralysis”.
